Where two headings read alike, the source gives them in different places.
Tests used:
cathepsin B = settings: cited from earlier work; for pIC50 Experimental: Table 4
AD animal models = settings: cited from earlier work
human cathepsin B = biological target: T1, human cathepsin B (Homo sapiens, UniProt P07858); assay: Cathepsin B inhibitory assay, fluorometric kit (ab185438), AFC substrate; format: biochemical; settings: 10 µM
T1 construct: purchased ab185438
Description: Cathepsin B inhibitory assay was performed using a fluorometric-based assay kit as per company instructions (ab185438). The assay kit utilizes the ability of cathepsin B to cleave synthetic AFC (7-Amino-4-trifluoromethyl coumarin) substrate to freely release AFC; moreover, this AFC can be quantified by a fluorometer. In the presence of cathepsin B inhibitors, the cleavage of the substrate was reduced, and there was a decrease in the total loss of the AFC fluorescence. The experiments were performed in triplicate. The test compounds (virtual screened hits) were prepared in different concentrations of 2.5, 5.0, 10.0, 15.0, and 20.0 µM. […] Next, fluorescence was measured in a kinetic mode for 30–60 min at 37 °C (Ex/Em = 400/505). Two timepoints were used—0 and 15 min (ΔT = T2 − T1)—and corresponding values for the fluorescence (ΔRFU = RFU2-RFU1) were used to calculate the slope for all test inhibitor samples and EC, by dividing the net ΔRFU values by the time ΔT. The percentage of relative inhibition was calculated using the following formula: % Relative Inhibition=Slope of EC−Slope of Sample /Slope of EC×100

[1] = Figure 1, previously reported inhibitors of cathepsin B, read-out: IC50
[2] = class of the experimental IC50, read-out: Activity Scale Experimental
[3] = Table S1, read-out: IC50: half maximal inhibitory concentration

Row | Compound | pIC50 Experimental (cathepsin B) | IC50 (cathepsin B; [2]) [nM] | also measured
1 | CCOC(=O)[C@H]1O[C@@H]1C(=O)N[C@@H](CC(C)C)C(=O)NCCC(C)C [Compound N20, ethyl (2S,3S)-3-[[(2S)-4-methyl-1-(3-methylbutylamino)-1-oxopentan-2-yl]carbamoyl]oxirane-2-carboxylate] | 8.47 | < 300 | IC50 (cathepsin B; [1]): 14 nM; Aβ in the brain (AD animal models): reduces Aβ in the brain; memory deficits (AD animal models): improves memory deficits
2 | F-F-FMK |  |  | relative inhibition (human cathepsin B): 69.67%
3 | CC(NC(=O)C(Cc1ccccc1)NC(=O)OCc1ccccc1)C([O-])=C[N+]#N (centres unmarked) [Compound S4, 1-diazonio-3-[[3-phenyl-2-(phenylmethoxycarbonylamino)propanoyl]amino]but-1-en-2-olate] | 8.03 | < 300 | 
4 | CCOC(=O)C(C(=O)OCC)N(C#N)c1nc(SC)nc(N(C)C)n1 [Compound S19, diethyl 2-[cyano-[4-(dimethylamino)-6-methylsulfanyl-1,3,5-triazin-2-yl]amino]propanedioate] | 4.71 | > 2500 | 
5 | Nc1cc(OC(=O)c2cccs2)nn1S(=O)(=O)c1ccccc1 [Compound S34, [5-amino-1-(benzenesulfonyl)pyrazol-3-yl] thiophene-2-carboxylate] | 6.61 | < 300 | 
6 | COc1ccc(S(=O)(=O)n2nc(OC(=O)c3ccccc3)cc2N)cc1 [Compound S17, [5-amino-1-(4-methoxyphenyl)sulfonylpyrazol-3-yl] benzoate] | 5.02 | > 2500 | 
7 | O=C1C[C@@H](c2ccc(O)c(-c3c(O)cc(O)c4c(=O)cc(-c5ccc(O)cc5)oc34)c2)Oc2cc(O)cc(O)c21 [AMF4, 2,3-dihydroamentoflavone] |  |  | IC50 (cathepsin B; [1]): 620 nM
8 | COc1nc(N(C#N)CC(N)=O)nc(N2CCCC2)n1 [Compound S24, 2-[cyano-(4-methoxy-6-pyrrolidin-1-yl-1,3,5-triazin-2-yl)amino]acetamide] | 4.85 | > 2500 | 
9 | CC(=O)NC(=O)NC1OC(=O)C(Cl)=C1Cl (centres unmarked) [Compound S16, N-[(3,4-dichloro-5-oxo-2H-furan-2-yl)carbamoyl]acetamide] | 5.67 | 300 to 2500 | IC50 (cathepsin B; [3]): 2120 nM
10 | NCCCCNC(=O)[C@H](Cc1ccccc1)NC(=O)[C@H]1O[C@@H]1C(=O)O [Compound N6, (2S,3S)-3-({(2S)-1-[(4-Aminobutyl)amino]-1-oxo-3-phenyl-2-propanyl}carbamoyl)-2-oxiranecarboxylic acid] | 6.58 | < 300 | IC50 (cathepsin B; [3]): 260 nM
